The results in this text go back to patent publication US10899793B2, “Melanocortin ligands and methods of use thereof” (priority 2016, dated 2021).

Square brackets hold non-standard residues; d marks the D form. Peptide text beside a SMILES is read from it. Bip = N[C@@H](Cc1ccc(-c2ccccc2)cc1)C(=O)O; dPhe(4-I) = N[C@H](Cc1ccc(I)cc1)C(=O)O; 2Nal = N[C@@H](Cc1ccc2ccccc2c1)C(=O)O; d2Nal = N[C@H](Cc1ccc2ccccc2c1)C(=O)O; Bta = N[C@@H](Cc1csc2ccccc12)C(=O)O; Tic = O=C(O)[C@@H]1Cc2ccccc2CN1

Assay [1] deals with mMC1R (Mus musculus, UniProt Q01727). As to the kind of experiment: AlphaScreen cAMP agonist assay at mMC1R. The following applies: Table 2; @ 100 μM.
Chain of mMC1R (Q01727 whole entry): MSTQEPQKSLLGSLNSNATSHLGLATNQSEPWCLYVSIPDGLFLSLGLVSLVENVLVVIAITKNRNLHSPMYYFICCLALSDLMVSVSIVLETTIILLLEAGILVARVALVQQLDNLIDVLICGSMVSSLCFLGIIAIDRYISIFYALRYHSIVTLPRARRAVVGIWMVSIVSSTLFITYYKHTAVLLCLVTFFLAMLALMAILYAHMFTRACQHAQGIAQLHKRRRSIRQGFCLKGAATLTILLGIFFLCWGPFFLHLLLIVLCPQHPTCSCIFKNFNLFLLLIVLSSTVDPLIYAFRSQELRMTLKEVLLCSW
The target in assay [2] is T1, mMC3R (Mus musculus, UniProt P33033). As to conditions: Table 1; Schild analysis, pA2 = -Log(Ki); Full Agonist = full dose-response, No Activity = no shift in EC50.
T1 sequence (P33033 whole entry): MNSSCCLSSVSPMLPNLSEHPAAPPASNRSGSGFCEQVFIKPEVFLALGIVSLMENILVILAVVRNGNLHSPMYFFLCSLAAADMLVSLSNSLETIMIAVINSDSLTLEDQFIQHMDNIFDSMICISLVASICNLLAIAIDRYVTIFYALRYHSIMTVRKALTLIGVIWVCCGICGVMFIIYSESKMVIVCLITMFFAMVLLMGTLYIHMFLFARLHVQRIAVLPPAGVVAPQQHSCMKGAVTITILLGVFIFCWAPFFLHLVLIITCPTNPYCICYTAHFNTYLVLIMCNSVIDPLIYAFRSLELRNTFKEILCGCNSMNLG
Assay [3] deals with T2, mMC4R (Mus musculus, UniProt P56450). The following applies: for mMC4R Antagonist pA2 ± SEM: Table 1, Schild analysis, pA2 = -Log(Ki).
T2 sequence (P56450 whole entry): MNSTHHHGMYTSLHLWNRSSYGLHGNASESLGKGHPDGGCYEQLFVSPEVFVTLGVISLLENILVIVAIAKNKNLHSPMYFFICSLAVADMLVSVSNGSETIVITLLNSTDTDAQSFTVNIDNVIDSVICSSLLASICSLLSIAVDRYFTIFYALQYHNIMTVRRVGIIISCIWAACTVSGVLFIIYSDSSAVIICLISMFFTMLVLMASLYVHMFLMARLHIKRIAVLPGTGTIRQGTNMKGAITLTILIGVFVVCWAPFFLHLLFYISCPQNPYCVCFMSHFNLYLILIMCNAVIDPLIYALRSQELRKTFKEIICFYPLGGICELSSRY
In assay [4] the target is T2, mMC4R. As to the kind of experiment: AlphaScreen cAMP agonist assay at mMC4R. As to conditions: read-out: mMC4R Agonist, percent of the NDP-MSH maximal positive control. A general note: Alpha assays give light when donor and acceptor beads are brought close together.
Assay [5] addresses T1, mMC3R. As to the kind of experiment: AlphaScreen cAMP agonist assay at mMC3R. As to conditions: Table 1; @ 100 μM.
Assay [6] addresses mMC5R (Mus musculus, UniProt P41149). As to the kind of experiment: AlphaScreen cAMP agonist assay at mMC5R. As to conditions: read-out: percent of the NDP-MSH maximal positive control, Table 2.

Chain of mMC5R (P41149 whole entry): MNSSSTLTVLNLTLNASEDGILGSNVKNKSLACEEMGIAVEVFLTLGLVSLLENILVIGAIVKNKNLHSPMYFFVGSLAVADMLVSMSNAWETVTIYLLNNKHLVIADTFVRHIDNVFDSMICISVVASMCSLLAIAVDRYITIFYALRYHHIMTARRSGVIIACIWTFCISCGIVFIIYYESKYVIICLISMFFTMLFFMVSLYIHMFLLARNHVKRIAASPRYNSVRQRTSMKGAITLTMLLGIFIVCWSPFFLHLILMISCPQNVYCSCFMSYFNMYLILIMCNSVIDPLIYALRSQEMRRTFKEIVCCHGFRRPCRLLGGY

Regarding `CC(=O)N1Cc2ccccc2C[C@H]1C(=O)N[C@@H](CCCNC(=N)N)C(=O)N[C@H](Cc1ccc(I)cc1)C(=O)N[C@@H](Cc1ccc(-c2ccccc2)cc1)C(N)=O` [SKY5-146-1, Ac-Tic-Arg-(pI)DPhe-Bip-NH2] (Ac-[Tic]R[dPhe(4-I)][Bip]-NH2), in assay [1], the “mMC1R percent of the NDP-MSH maximal positive control” value (“mMC1R percent” below) amounted to 39% @ 100 μM. For the same compound, the “mMC3R Antagonist pA2 ± SEM” value in assay [2] was “No Activity”. The “mMC4R Antagonist pA2 ± SEM” value in assay [3] was “No Activity”.

With `CC(=O)N1Cc2ccccc2C[C@H]1C(=O)N[C@@H](CCCNC(=N)N)C(=O)N[C@H](Cc1ccc(I)cc1)C(=O)N[C@@H](Cc1csc2ccccc12)C(N)=O` [SKY4-48-14, Ac-Tic-Arg-(pI)DPhe-3Bal-NH2] (Ac-[Tic]R[dPhe(4-I)][Bta]-NH2), the “mMC1R percent” value in assay [1] is 38% @ 100 μM. Moreover, the “mMC3R Antagonist pA2 ± SEM” value in assay [2] was “Full Agonist”.

Consider `CC(=O)N[C@H](Cc1ccc2ccccc2c1)C(=O)N[C@@H](CCCNC(=N)N)C(=O)N[C@H](Cc1ccc(I)cc1)C(=O)N[C@@H](Cc1ccc2ccccc2c1)C(N)=O` [SKY5-146-5, Ac-DNal(2′)-Arg-(pI)DPhe-Nal(2′)-NH2] (Ac-[d2Nal]R[dPhe(4-I)][2Nal]-NH2), for which the results for the activation at 100 µM in assay [4] and in assay [6] were 39% and 40%, respectively. In addition, the “mMC3R Agonist, percent of the NDP-MSH maximal positive control” value (from here on “mMC3R Agonist, percent”) in assay [5] is on record as 43% @ 100 μM.

On to `CC(=O)N[C@@H](Cc1ccc2ccccc2c1)C(=O)N[C@@H](CCCNC(=N)N)C(=O)N[C@H](Cc1ccc(I)cc1)C(=O)N1Cc2ccccc2C[C@H]1C(N)=O` [SKY4-48-24, Ac-Nal(2′)-Arg-(pI)DPhe-Tic-NH2] (Ac-[2Nal]R[dPhe(4-I)][Tic]-NH2), for which, in assay [4], the activation at 100 µM came out at 33%. Moreover, in assay [2], the “mMC3R Antagonist pA2 ± SEM” value is on record as “Full Agonist”.

Consider `CC(=O)N[C@@H](Cc1ccc(-c2ccccc2)cc1)C(=O)N[C@@H](CCCNC(=N)N)C(=O)N[C@H](Cc1ccc(I)cc1)C(=O)N[C@@H](Cc1ccc(-c2ccccc2)cc1)C(N)=O` [SKY4-48-4, Ac-Bip-Arg-(pI)DPhe-Bip-NH2] (Ac-[Bip]R[dPhe(4-I)][Bip]-NH2), for which, in assay [4], the activation at 100 µM turned out to be 24%. Moreover, the “mMC3R Antagonist pA2 ± SEM” value in assay [2] was “No Activity”. For the same compound, the “mMC4R Antagonist pA2 ± SEM” value in assay [3] is given as “No Activity”.

In the case of `CC(=O)N[C@@H](Cc1csc2ccccc12)C(=O)N[C@@H](CCCNC(=N)N)C(=O)N[C@H](Cc1ccc(I)cc1)C(=O)N[C@@H](Cc1ccc(-c2ccccc2)cc1)C(N)=O` [SKY4-48-5, Ac-3Bal-Arg-(pI)DPhe-Bip-NH2] (Ac-[Bta]R[dPhe(4-I)][Bip]-NH2), the activation at 100 µM in assay [4] was found to be 35%. Further, the “mMC3R Antagonist pA2 ± SEM” value in assay [2] was “No Activity”. Further, in assay [3], the “mMC4R Antagonist pA2 ± SEM” value is given as “No Activity”. In assay [5], the “mMC3R Agonist, percent” value is 51% @ 100 μM.

`CC(=O)N1Cc2ccccc2C[C@H]1C(=O)N[C@@H](CCCNC(=N)N)C(=O)N[C@H](Cc1ccc(I)cc1)C(=O)N[C@H](Cc1ccc2ccccc2c1)C(N)=O` [SKY4-48-46, Ac-Tic-Arg-(pI)DPhe-DNal(2′)-NH2] (Ac-[Tic]R[dPhe(4-I)][d2Nal]-NH2): the figures for the activation at 100 µM in assay [4] and in assay [6] were 33% and 74%, respectively. For the same compound, the “mMC3R Antagonist pA2 ± SEM” value in assay [2] is given as “No Activity”. The “mMC4R Antagonist pA2 ± SEM” value in assay [3] was “No Activity”. The “mMC3R Agonist, percent” value in assay [5] is 42% @ 100 μM.

On to `CC(=O)N[C@H](Cc1ccc2ccccc2c1)C(=O)N[C@@H](CCCNC(=N)N)C(=O)N[C@H](Cc1ccc(I)cc1)C(=O)N[C@@H](Cc1csc2ccccc12)C(N)=O` [SKY4-48-17, Ac-DNal(2′)-Arg-(pI)DPhe-3Bal-NH2] (Ac-[d2Nal]R[dPhe(4-I)][Bta]-NH2), for which, in assay [4], the activation at 100 µM was 45%. In addition, in assay [2], the “mMC3R Antagonist pA2 ± SEM” value is given as “Full Agonist”.

With `CC(=O)N1Cc2ccccc2C[C@H]1C(=O)N[C@@H](CCCNC(=N)N)C(=O)N[C@H](Cc1ccc(I)cc1)C(=O)N1Cc2ccccc2C[C@H]1C(N)=O` [SKY6-24-1, Ac-Tic-Arg-(pI)DPhe-Tic-NH2] (Ac-[Tic]R[dPhe(4-I)][Tic]-NH2), the activation at 100 µM in assay [4] was determined as 36%. Also, the “mMC3R Antagonist pA2 ± SEM” value in assay [2] is listed as “Full Agonist”.

Turning to `CC(=O)N[C@H](Cc1ccc2ccccc2c1)C(=O)N[C@@H](CCCNC(=N)N)C(=O)N[C@H](Cc1ccc(I)cc1)C(=O)N[C@H](Cc1ccc2ccccc2c1)C(N)=O` [SKY4-48-49, Ac-DNal(2′)-Arg-(pI)DPhe-DNal(2′)-NH2] (Ac-[d2Nal]R[dPhe(4-I)][d2Nal]-NH2), the activation at 100 µM turned out to be 37% in assay [4] and 43% in assay [6]. Moreover, the “mMC3R Agonist, percent” value in assay [5] is recorded as 40% @ 100 μM.

For the compound `CC(=O)N[C@H](Cc1ccc2ccccc2c1)C(=O)N[C@@H](CCCNC(=N)N)C(=O)N[C@H](Cc1ccc(I)cc1)C(=O)N[C@@H](Cc1ccc(-c2ccccc2)cc1)C(N)=O` [SKY5-146-2, Ac-DNal(2′)-Arg-(pI)DPhe-Bip-NH2] (Ac-[d2Nal]R[dPhe(4-I)][Bip]-NH2), the activation at 100 µM in assay [4] worked out at 42%. For the same compound, the “antagonist pA2 at the mMC4R” value in assay [3] is 6.6. Besides, the “mMC3R Agonist, percent” value in assay [5] turned out to be 30% @ 100 μM.

Turning to `CC(=O)N[C@@H](Cc1c[nH]cn1)C(=O)N[C@@H](CCCNC(=N)N)C(=O)N[C@H](Cc1ccc(I)cc1)C(=O)N[C@@H](Cc1ccc(-c2ccccc2)cc1)C(N)=O` [SKY4-48-3, Ac-His-Arg-(pI)DPhe-Bip-NH2] (Ac-HR[dPhe(4-I)][Bip]-NH2), the activation at 100 µM in assay [4] was 43%. Besides, the “mMC3R Antagonist pA2 ± SEM” value in assay [2] is “No Activity”. Also, the “mMC4R Antagonist pA2 ± SEM” value in assay [3] was “No Activity”. The “mMC3R Agonist, percent” value in assay [5] came out at 53% @ 100 μM.

For `CC(=O)N[C@@H](Cc1ccccc1)C(=O)N[C@@H](CCCNC(=N)N)C(=O)N[C@H](Cc1ccc(I)cc1)C(=O)N[C@@H](Cc1ccc(-c2ccccc2)cc1)C(N)=O` [SKY4-48-7, Ac-Phe-Arg-(pI)DPhe-Bip-NH2] (Ac-FR[dPhe(4-I)][Bip]-NH2), in assay [1], the “mMC1R percent” value is given as 67% @ 100 μM. In assay [2], the “mMC3R Antagonist pA2 ± SEM” value is listed as “No Activity”. Besides, in assay [3], the “mMC4R Antagonist pA2 ± SEM” value is reported as “No Activity”. The “mMC3R Agonist, percent” value in assay [5] turned out to be 30% @ 100 μM.

Consider `CC(=O)N1Cc2ccccc2C[C@H]1C(=O)N[C@@H](CCCNC(=N)N)C(=O)N[C@H](Cc1ccc(I)cc1)C(=O)N[C@@H](Cc1ccc2ccccc2c1)C(N)=O` [SKY4-48-38, Ac-Tic-Arg-(pI)DPhe-Nal(2′)-NH2] (Ac-[Tic]R[dPhe(4-I)][2Nal]-NH2), for which the “mMC1R percent” value in assay [1] is 66% @ 100 μM. Besides, the “mMC3R Antagonist pA2 ± SEM” value in assay [2] was “No Activity”. Further, the activation at 100 µM in assay [6] was 48%.

With `CC(=O)N[C@@H](Cc1c[nH]cn1)C(=O)N[C@@H](CCCNC(=N)N)C(=O)N[C@H](Cc1ccc(I)cc1)C(=O)N[C@H](Cc1ccc2ccccc2c1)C(N)=O` [SKY4-48-43, Ac-His-Arg-(pI)DPhe-DNal(2′)-NH2] (Ac-HR[dPhe(4-I)][d2Nal]-NH2), the figures for the activation at 100 µM in assay [4] and in assay [6] were 50% and 47%, respectively. The “mMC3R Antagonist pA2 ± SEM” value in assay [2] was “Full Agonist”.

`CC(=O)N[C@@H](Cc1ccc2ccccc2c1)C(=O)N[C@@H](CCCNC(=N)N)C(=O)N[C@H](Cc1ccc(I)cc1)C(=O)N[C@H](Cc1ccc2ccccc2c1)C(N)=O` [SKY4-48-48, Ac-Nal(2′)-Arg-(pI)DPhe-DNal(2′)-NH2] (Ac-[2Nal]R[dPhe(4-I)][d2Nal]-NH2): the “mMC1R percent” value in assay [1] is on record as 53% @ 100 μM. Also, in assay [2], the “mMC3R Antagonist pA2 ± SEM” value is listed as “No Activity”. Further, in assay [3], the “mMC4R Antagonist pA2 ± SEM” value is “No Activity”. Moreover, in assay [5], the “mMC3R Agonist, percent” value came out at 31% @ 100 μM. For the same compound, the activation at 100 µM in assay [6] amounted to 40%.

As for `CC(=O)N[C@@H](Cc1csc2ccccc12)C(=O)N[C@@H](CCCNC(=N)N)C(=O)N[C@H](Cc1ccc(I)cc1)C(=O)N1Cc2ccccc2C[C@H]1C(N)=O` [SKY4-48-21, Ac-3Bal-Arg-(pI)DPhe-Tic-NH2] (Ac-[Bta]R[dPhe(4-I)][Tic]-NH2), the activation at 100 µM in assay [4] was determined as 37%. The “mMC3R Antagonist pA2 ± SEM” value in assay [2] is listed as “Full Agonist”.

As to `CC(=O)N[C@@H](Cc1csc2ccccc12)C(=O)N[C@@H](CCCNC(=N)N)C(=O)N[C@H](Cc1ccc(I)cc1)C(=O)N[C@@H](Cc1ccccc1)C(N)=O` [SKY5-146-4, Ac-3Bal-Arg-(pI)DPhe-Phe-NH2] (Ac-[Bta]R[dPhe(4-I)]F-NH2), the “mMC3R Antagonist pA2 ± SEM” value in assay [2] is reported as “No Activity”. For the same compound, the “mMC4R Antagonist pA2 ± SEM” value in assay [3] is “No Activity”. Moreover, in assay [5], the “mMC3R Agonist, percent” value came to 37% @ 100 μM. Moreover, the activation at 100 µM in assay [6] was 35%.

Turning to `CC(=O)N[C@@H](Cc1c[nH]cn1)C(=O)N[C@@H](CCCNC(=N)N)C(=O)N[C@H](Cc1ccc(I)cc1)C(=O)N[C@@H](Cc1ccc2ccccc2c1)C(N)=O` [SKY4-48-35, Ac-His-Arg-(pI)DPhe-Nal(2′)-NH2] (Ac-HR[dPhe(4-I)][2Nal]-NH2), the activation at 100 µM in assay [4] was 35%. In addition, in assay [5], the “mMC3R Agonist, percent” value is 57% @ 100 μM.

Turning to `CC(=O)N[C@@H](Cc1ccc(-c2ccccc2)cc1)C(=O)N[C@@H](CCCNC(=N)N)C(=O)N[C@H](Cc1ccc(I)cc1)C(=O)N[C@@H](Cc1ccc2ccccc2c1)C(N)=O` [SKY4-48-36, Ac-Bip-Arg-(pI)DPhe-Nal(2′)-NH2] (Ac-[Bip]R[dPhe(4-I)][2Nal]-NH2), the “mMC1R percent” value in assay [1] was 23% @ 100 μM. For the same compound, in assay [2], the “mMC3R Antagonist pA2 ± SEM” value is given as “No Activity”. Further, the “mMC4R Antagonist pA2 ± SEM” value in assay [3] was “No Activity”. For the same compound, the activation at 100 µM in assay [6] was 21%.
